PubChem BioAssay AID328 (DTP/NCI, 2004)
Several values for one entry are separate records, joined by “and”; a condition that tells them apart may be missing. Identical values can stand only once. Toxic doses and inconclusive results are not listed. Non-standard residues stand in square brackets, D forms with d. Residues, ends and D or L forms follow the SMILES beside them. ξ: configuration not given here. ξF = NC(Cc1ccccc1)C(=O)O

Test system: BDF1 mice, P388 leukemia ip, median survival T/C
Test: NCI In Vivo Anticancer Drug Screen. Data for tumor model P388 Leukemia (intraperitoneal) in B6D2F1 (BDF1) mice
Settings: endpoint: median survival time, higher = longer survival
Outline: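 Transplantable tumour in mice; compound vs vehicle dosing; survival scored; ratio of treated to control reported.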

[1] = dose: 200.0 mg/kg/injection, schedule: Q04DX003 (ip), vehicle: saline
[2] = dose: 400.0 mg/kg/injection, schedule: Q04DX003 (ip), vehicle: saline
[3] = dose: 50.0 mg/kg/injection, schedule: Q01DX005 (ip), vehicle: saline with Tween-80
[4] = dose: 100.0 mg/kg/injection, schedule: Q01DX005 (ip), vehicle: saline with Tween-80
[5] = dose: 200.0 mg/kg/injection, schedule: Q01DX005 (ip), vehicle: saline with Tween-80
[6] = dose: 100.0 mg/kg/injection, schedule: Q01DX009 (ip), vehicle: Klucel (hydroxypropylcellulose) (HPC)
[7] = dose: 200.0 mg/kg/injection, schedule: Q01DX009 (ip), vehicle: Klucel (hydroxypropylcellulose) (HPC)
[8] = dose: 400.0 mg/kg/injection, schedule: Q01DX009 (ip), vehicle: Klucel (hydroxypropylcellulose) (HPC)
[9] = dose: 100.0 mg/kg/injection, schedule: Q01DX001 (ip), vehicle: Klucel (hydroxypropylcellulose) (HPC)
[10] = dose: 200.0 mg/kg/injection, schedule: Q01DX001 (ip), vehicle: Klucel (hydroxypropylcellulose) (HPC)
[11] = dose: 100.0 mg/kg/injection, schedule: Q01DX009 (ip), vehicle: saline with Tween-80
[12] = dose: 200.0 mg/kg/injection, schedule: Q01DX009 (ip), vehicle: saline with Tween-80
[13] = dose: 100.0 mg/kg/injection, schedule: Q01DX001 (ip), vehicle: saline with Tween-80

COc1ccc2c(OC)c3ccoc3nc2c1OC
T/C (dose: 1.57 mg/kg/injection, schedule: Q01DX009 (ip), vehicle: Klucel (hydroxypropylcellulose) (HPC)): 89 % of control | T/C (dose: 3.13 mg/kg/injection, schedule: Q01DX009 (ip), vehicle: Klucel (hydroxypropylcellulose) (HPC)): 89 % of control | T/C (dose: 6.25 mg/kg/injection, schedule: Q01DX009 (ip), vehicle: Klucel (hydroxypropylcellulose) (HPC)): 101 % of control

C=C1CC(C2CCC(C)(C)C2)OC1=O (stereo not drawn)
T/C (dose: 25.0 mg/kg/injection, schedule: Q04DX002 (ip), vehicle: saline with Tween-80): 102 % of control | T/C (dose: 50.0 mg/kg/injection, schedule: Q04DX002 (ip), vehicle: saline with Tween-80): 100 % of control

NN(c1ccccc1)c1ccc2ccccc2c1
T/C (dose: 50.0 mg/kg/injection, schedule: Q04DX003 (ip), vehicle: Klucel (hydroxypropylcellulose) (HPC)): 95 % of control | T/C (dose: 100.0 mg/kg/injection, schedule: Q04DX003 (ip), vehicle: Klucel (hydroxypropylcellulose) (HPC)): 104 % of control | T/C (dose: 200.0 mg/kg/injection, schedule: Q04DX003 (ip), vehicle: Klucel (hydroxypropylcellulose) (HPC)): 109 % of control

O=C1N[C@@H]([C@H]2CC[C@H](Cl)CN2)C(=O)N[C@H]1[C@H]1CC[C@H](Cl)CN1
T/C (dose: 0.1 mg/kg/injection, schedule: Q01DX010 (ip), vehicle: saline): 154 % of control | T/C (dose: 0.2 mg/kg/injection, schedule: Q01DX010 (ip), vehicle: saline): 181 % of control | T/C (dose: 0.4 mg/kg/injection, schedule: Q01DX010 (ip), vehicle: saline): 227 % of control | T/C (dose: 1.44 mg/kg/injection, schedule: Q04DX003 (ip), vehicle: saline): 170 % of control | T/C (dose: 1.44 mg/kg/injection, schedule: Q04DX003 (ip), vehicle: water): 179 % of control | T/C (dose: 2.4 mg/kg/injection, schedule: Q04DX003 (ip), vehicle: saline): 184 % of control | T/C (dose: 2.4 mg/kg/injection, schedule: Q04DX003 (ip), vehicle: water): 192 % of control | T/C (dose: 2.5 mg/kg/injection, schedule: Q01DX001 (ip), vehicle: saline): 177 % of control | T/C (dose: 4.0 mg/kg/injection, schedule: Q04DX003 (ip), vehicle: saline): 252 % of control | T/C (dose: 4.0 mg/kg/injection, schedule: Q04DX003 (ip), vehicle: water): 259 % of control | T/C (dose: 5.0 mg/kg/injection, schedule: Q01DX001 (ip), vehicle: saline): 209 % of control | T/C (dose: 6.67 mg/kg/injection, schedule: Q04DX003 (ip), vehicle: saline): 118 % of control | T/C (dose: 6.67 mg/kg/injection, schedule: Q04DX003 (ip), vehicle: water): 118 % of control

NC(Cc1ccccc1)C(=O)NCC(=O)O (stereo not drawn) (H-[ξF]-Gly-OH)
T/C (dose: 100.0 mg/kg/injection, schedule: Q04DX003 (ip), vehicle: saline): 100 % of control | T/C [1]: 100 % of control | T/C [2]: 100 % of control

CC(=O)Nc1ccc(S(=O)(=O)NNC(=O)C(=O)Nc2cccc(Cl)c2)cc1
T/C [3]: 96 % of control | T/C [4]: 89 % of control | T/C [5]: 96 % of control

CCOC(=O)NC(CC)CO (stereo not drawn)
T/C [6]: 100 % of control | T/C [7]: 95 % of control | T/C [8]: 90 % of control

O=C(COc1cccc(Cl)c1)Nc1cccnc1
T/C [9]: 99 % of control | T/C [10]: 99 % of control

O=NN(CCBr)C(=O)NC1CCCCC1
T/C (dose: 1.5 mg/kg/injection, schedule: Q01DX009 (ip), vehicle: saline with Tween-80): 109 % of control | T/C (dose: 3.0 mg/kg/injection, schedule: Q01DX009 (ip), vehicle: saline with Tween-80): 109 % of control | T/C (dose: 6.0 mg/kg/injection, schedule: Q01DX009 (ip), vehicle: saline with Tween-80): 113 % of control | T/C (dose: 100.0 mg/kg/injection, schedule: Q01DX009 (ip), vehicle: gum acacia): 103 % of control | T/C [11]: 122 % of control | T/C (dose: 100.0 mg/kg/injection, schedule: Q04DX003 (ip), vehicle: gum acacia): 113 % of control | T/C (dose: 100.0 mg/kg/injection, schedule: Q04DX003 (ip), vehicle: saline with Tween-80): 109 % of control | T/C (dose: 133.0 mg/kg/injection, schedule: Q01DX009 (ip), vehicle: gum acacia): 115 % of control | T/C (dose: 150.0 mg/kg/injection, schedule: Q01DX009 (ip), vehicle: saline with Tween-80): 95 % of control | T/C [12]: 118 % of control and 122 % of control | T/C (dose: 200.0 mg/kg/injection, schedule: Q04DX003 (ip), vehicle: gum acacia): 104 % of control | T/C (dose: 200.0 mg/kg/injection, schedule: Q04DX003 (ip), vehicle: saline with Tween-80): 109 % of control | T/C (dose: 300.0 mg/kg/injection, schedule: Q01DX009 (ip), vehicle: gum acacia): 100 % of control | T/C (dose: 400.0 mg/kg/injection, schedule: Q01DX009 (ip), vehicle: gum acacia): 103 % of control | T/C (dose: 400.0 mg/kg/injection, schedule: Q04DX003 (ip), vehicle: gum acacia): 91 % of control

CC(=NCc1ccccc1)C(C)(O)c1ccccc1 (stereo not drawn)
T/C [9]: 100 % of control | T/C (dose: 100.0 mg/kg/injection, schedule: Q01DX001 (ip), vehicle: saline): 109 % of control | T/C [6]: 110 % of control | T/C [10]: 104 % of control | T/C (dose: 200.0 mg/kg/injection, schedule: Q01DX001 (ip), vehicle: saline): 100 % of control | T/C [7]: 100 % of control | T/C (dose: 400.0 mg/kg/injection, schedule: Q01DX001 (ip), vehicle: Klucel (hydroxypropylcellulose) (HPC)): 100 % of control | T/C (dose: 400.0 mg/kg/injection, schedule: Q01DX001 (ip), vehicle: saline): 118 % of control | T/C [8]: 105 % of control

CC1CCCC(c2ccccc2)C1 (stereo not drawn)
T/C (dose: 50.0 mg/kg/injection, schedule: Q01DX001 (ip), vehicle: saline with Tween-80): 109 % of control | T/C [13]: 109 % of control | T/C (dose: 200.0 mg/kg/injection, schedule: Q01DX001 (ip), vehicle: saline with Tween-80): 109 % of control

CN1C(=O)C(=Cc2ccc(N(C)C)cc2)C(=O)N(C)C1=O
T/C (dose: 50.0 mg/kg/injection, schedule: Q01DX009 (ip), vehicle: saline with Tween-80): 103 % of control | T/C [11]: 99 % of control | T/C [12]: 98 % of control

O=c1cc(-c2ccc(OCc3ccccc3)c(-c3c(OCc4ccccc4)cc(OCc4ccccc4)c4c(=O)cc(-c5ccc(OCc6ccccc6)cc5)oc34)c2)oc2cc(OCc3ccccc3)cc(OCc3ccccc3)c12
T/C [13]: 88 % of control

O=C(Nc1cccc2ccccc12)ON1C(=O)c2ccccc2C1=O
T/C [3]: 110 % of control | T/C [4]: 115 % of control | T/C [5]: 120 % of control

O=S(c1ccccc1)c1c(Cl)c(Cl)nc(Cl)c1Cl (stereo not drawn)
T/C (dose: 2.75 mg/kg/injection, schedule: Q01DX009 (ip), vehicle: saline with Tween-80): 109 % of control | T/C (dose: 5.5 mg/kg/injection, schedule: Q01DX009 (ip), vehicle: saline with Tween-80): 118 % of control | T/C (dose: 11.0 mg/kg/injection, schedule: Q01DX009 (ip), vehicle: saline with Tween-80): 113 % of control | T/C (dose: 25.0 mg/kg/injection, schedule: Q04DX003 (ip), vehicle: saline with Tween-80): 113 % of control | T/C (dose: 50.0 mg/kg/injection, schedule: Q04DX003 (ip), vehicle: saline with Tween-80): 121 % of control

Cn1c(=N)ccn(C2OC(CO)C(O)C2O)c1=O (stereo not drawn) (tested in a mixture with another compound)
T/C [1]: 111 % of control | T/C [2]: 165 % of control

CC1(C)O[Se](=O)OC1(C)C
T/C (dose: 6.25 mg/kg/injection, schedule: Q04DX003 (ip), vehicle: saline): 100 % of control

CN(N=O)C(=O)NC(C=O)C(O)C(O)C(O)CO (stereo not drawn)
T/C (dose: 25.0 mg/kg/injection, schedule: Q01DX010 (ip), vehicle: saline): 113 % of control

Cc1ccn(-c2ccccc2)n1
T/C (dose: 100.0 mg/kg/injection, schedule: Q04DX003 (ip), vehicle: other): 104 % of control | T/C (dose: 200.0 mg/kg/injection, schedule: Q04DX003 (ip), vehicle: other): 113 % of control | T/C (dose: 400.0 mg/kg/injection, schedule: Q04DX003 (ip), vehicle: other): 113 % of control
